According to patent publication US10925872B2, “Methods of treating cochlear synaptopathy” (PIPELINE THERAPEUTICS, INC., priority 2016, dated 2021):

Columns and labels:
[1] = system: Type I spiral ganglion neurons; test: Type I spiral ganglion neuron neurite outgrowth with GSMs; type: cell-based, CD-1 mice; conditions: for EC50: 24 h treatment, Type I SGNs; for neurite outgrowth (length of Type I SGN neurites): varying concentrations, 24 h
Experimental: Spiral ganglion neurons (SGNs) were cultured from postnatal day 5 CD-1 mice using methods adapted from Whitlon D S, et al., Scientific Reports, 2015, 5, 15960, doi:10.1038/srep15960. Neurons were dissociated and plated onto collagen-coated 96-well plates in growth media (DMEM/F12, N2 and B27 serum supplements and penicillin/streptomycin). After 18 h in culture, neurons were treated with varying concentrations of RO or NGP-555 for 24 h. Neurons were fixed and stained with a rabbit b-tubulin (somato-axonal marker) antibody followed by a donkey-anti-rabbit secondary antibody conjugated to Alexa 568 and counterstained with Hoechst blue fluorescent dye to stain the DNA. Neurons were imaged on an InCell 2000. Neurite length was measured using ImageJ. Only β-tubulin^+ cells displaying bipolar morphology (indicative of Type I SGNs) were quantified.
To determine whether the netrin-DCC pathway is involved in GSM-induced neurite outgrowth, a function-blocking netrin antibody was applied to the media 1 h prior to addition of 1 μM test compound. After 24 h, neurons are stained with β-tubulin and only neurites from Type I neurons are analyzed. Co-application of the netrin antibody with test compound results in a significant reduction in neurite outgrowth (FIG. 4D).

DCC α-fragment [2] = test: DCC α-fragment Western blot, mouse ex vivo embryonic spinal cord; type: cell-based, CD-1 mice; conditions: embryonic day 15 spinal cord segments, 1 μM, 24 h, normalized to actin
From the text: (§1) Previous reports have shown that DCC (deleted in colorectal cancer) is a γ-secretase substrate. DCC is the receptor for the guidance molecule, netrin, and its activation results in neuronal axon outgrowth, axon turning and synapse formation. Embryonic spinal cords of presenilin knockout mice treated display persistent expression of the DCC α-fragment; these fragments can enhance netrin-DCC mediated events, including axon outgrowth in cultured motor neurons (Taniguchi et al., 2003, J. Biol. Chem., 278:30425-30428, and Bai et al., 2011, Cell, 144(1): 106-18). The following studies were performed using GSM, “RO”, as well as the GSI, Compound I. RO has the structure:
Spinal cords from embryonic day 15 CD-1 mice were collected and cut into 1-2 mm segments and transferred to serum-free growth media (DMEM-F12, N2 and B27 serum supplements, penicillin/streptomycin) with 1 μM RO or 1 μM Compound I. Segments were cultured for 24 h (37° C., 5% CO2) then processed for Western blot. Membranes were probed with a DCC antibody recognizing the intracellular domain and bands were normalized to actin.

DCC α-fragment [3] = test: DCC α-fragment Western blot, mouse ex vivo cochlea (spiral ganglion); type: cell-based, CD-1 mice; conditions: postnatal day 21 cochlea, 1 μM, 24 h, normalized to actin
From the text: as §1
Cochleae were obtained from postnatal day 21 CD-1 mice. An opening was made in the bone at the cochlear apex to allow for fluid flow. Cochlea were incubated in serum-free growth media (DMEM-F12, N2 and B27 serum supplements, penicillin/streptomycin) with 1 μM RO or 1 μM Compound I. After 24 h, spiral ganglion were isolated and processed for Western blot. Membranes were probed with a DCC antibody recognizing the intracellular domain and bands were normalized to actin.

[4] = system: synapses on inner hair cells; test: Mouse noise-induced cochlear synaptopathy, oral GSM; type: in vivo, CBA/J mice; conditions: 98 dB 8-16 kHz noise 2 h; oral gavage from three weeks later; fourteen days later; 32 kHz region
Experimental: Female CBA/J mice were exposed to 98 dB 8-16 kHz filtered noise for 2 hours. Three weeks later, vehicle (0.5% Methylcellulose, b.i.d.), NGP-555 (50 mg/kg, b.i.d.) or RO (10 mg/kg, q.d.) was given by oral gavage. Fourteen days later, mice were euthanized, cochlea removed, then tissue was fixed by perfusion with 4% paraformaldehyde. Cochlea were washed with calcium/magnesium free PBS then decalcified in 12.5 mM EDTA for 3 days. Cochlea were bisected with a midmodiolar cut through the oval window to apex. Individual turns were then separated and stained with antibodies against Myo6 and CtBP2. Synapses per inner hair cell were quantified on the turn containing the 32 kHz region. Consistent with literature, a decrease in synaptic density (but no decrease in inner or outer hair cell number) was observed after the 98 dB insult.

[5] = system: Type I spiral ganglion neurons; test: Type I spiral ganglion neuron neurite outgrowth with GSIs; type: cell-based, CD-1 mice; conditions: 24-48 h, 0.1% DMSO
Experimental: Mouse spiral ganglion neurons (SGN) were harvested from CD-1 mice (postnatal day 3 to 5), dissociated and cultured on collagen I in serum free media. Cells were treated for 24-48 h with test compound in 0.1% DMSO then immunostained with the neurite marker, Tuj1 and imaged. Neurite length was quantified using ImageJ software (developed by NIH and available publicly). Only Tuj1^+ cells with clear bipolar morphology characteristic of Type I SGNs were quantified. The test compounds were Compound I, Compound II, and RO4929097, as well as the Notch sparing GSI, BMS-708163; NT-3 was included as positive control. […] Moreover, BMS-708163, a Notch-sparing GSI, and Compound I, a Notch inhibiting GSI, both increased type I SGN neurite outgrowth (FIG. 6C).

inner hair cell synapses [6] = test: Guinea pig kanamycin-induced cochlear synaptopathy model; type: in vivo, Hartley guinea pigs; conditions: kanamycin 400 mg/kg i.p. 10 days; 30 μl of 2% in vehicle bilateral transtympanic on day 15; three months after
Experimental: Beginning on day 0, male Hartley guinea pigs (450-500 g) were deafened by intraperitoneal administration of kanamycin (400 mg/kg) dosed once daily for 10 consecutive days. […] A loss of synapse density in this model has not been described previously. On day 15, animals received bilateral transtympanic injections of vehicle (30 μl), crystalline Compound I (30 μl of 2% in vehicle), or crystalline Compound II (30 μl of 2% in vehicle). Three months after administration of test article, animals were euthanized and cochleae collected and stained with phalloidin and antibodies against CtBP2 and NF-200. The number of CtBP2+/NF-200+ synapses were quantified and normalized to the number of inner hair cells to obtain synapse density. Synapse density was decreased with kanamycin treatment at 14.7 and 17.3 mm from the apex of the cochlea, which in the guinea pig cochlea, tonally correlates with 16 and 32 kHz, respectively, according to the Greenwood frequency map.
Vehicle (PF10) and GSI in vehicle used in Examples 6 and 7 were prepared as follows: To 129 mL sterile water was added, 0.96 g sodium chloride, 0.59 g sodium phosphate dibasic, and 0.14 g sodium phosphate monobasic. The solution was stirred at ambient temperature and 25.6 g poloxamer 407 was added and stirred overnight to yield a clear solution. […]

inner hair cell synapses [7] = conditions: noise-exposed mice, delivery to the round window niche; cited from earlier work

For `Cc1cn(-c2ccc3n(c2=O)CCN([C@@H](C)[C@@H]2CC[C@H](c4cc(F)c(Cl)cc4C(F)(F)F)O2)C3=O)cn1` [PF-06648671], the EC50 [1] was 0.303 nM and the “neurite outgrowth (length of Type I SGN neurites)” value (shortened to “neurite outgrowth”) [1] was “dose-dependence increases”.

With `Cc1nsc(N2C[C@H]3CC[C@@H](C2)[C@@H]3Nc2nc3c(-c4ccc(F)c(F)c4F)cccn3n2)n1` [RO] the “DCC α-fragment level compared to the vehicle group” value (DCC α-fragment [2]) was “Increase in α-fragment”, the “DCC α-fragment level compared to the vehicle group” value (DCC α-fragment [3]) was “Increase in α-fragment” and the EC50 ([1]; Mus musculus, Neuron) was 24 nM. For the same molecule, the “neurite outgrowth” value [1] was “dose dependent increase” and the “number of synapses on inner hair cells (synaptic density)” value [4] was “increase in synaptic density”.

With `CCc1cc(Nc2nc(-c3ccc(-n4cnc(C)c4)c(F)c3)cs2)c(C)cc1C` [NGP555] the EC50 ([1]; Mus musculus, Neuron) was 0.527 nM, the “neurite outgrowth” value [1] was “dose dependent increase” and the “number of synapses on inner hair cells (synaptic density)” value [4] was “significantly increased”.

In the case of `CC(C)(C(=O)NCC(F)(F)C(F)(F)F)C(=O)N[C@@H]1C(=O)Nc2ccccc2-c2ccccc21` [RO4929097, reference compound], the “lengths of Type I SGN neurites” value [5] is reported as “significant increase”.

With `COc1ccc2c(c1)N1CCC(C)(C)C1=CC(=O)C2NC(=O)[C@H](C)NC(=O)CCC(F)(F)F` (stereo partly drawn) [Compound X, 4,4,4-trifluoro-N-((2S)-1-((9-methoxy-3,3-dimethyl-5-oxo-2,3,5,6-tetrahydro-1H-benzo[f]pyrrolo[1,2-a]azepin-6-yl)amino)-1-oxopropan-2-yl)butanamide] the “lengths of Type I SGN neurites” value [5] was “dose-dependent increase”.

With `CN1C(=O)[C@@H](NC(=O)[C@](C)(F)C(=O)NCC(F)(F)C(F)(F)F)c2ccccc2-c2ccccc21` [Compound II, (2R)-2-fluoro-2-methyl-N—[(S)-5-methyl-6-oxo-6,7-dihydro-5H-dibenzo[b,d]azepin-7-yl]-N′-(2,2,3,3,3-pentafluoropropyl)malonamide] the “lengths of Type I SGN neurites” value [5] was “significant increase” and the “synapse density (CtBP2+/NF-200+ synapses per inner hair cell)” value (inner hair cell synapses [6]) was “increased”.

In the case of `NC(=O)[C@@H](CCC(F)(F)F)N(Cc1ccc(-c2ncon2)cc1F)S(=O)(=O)c1ccc(Cl)cc1` [BMS-708163, reference compound], the “lengths of Type I SGN neurites” value [5] is reported as “increased”.

B1: NT-3: growth factor that binds to TrkC receptors; positive control (protein, UniProt P20783 139-257, looked up)
Neurotrophin-3: YAEHKSHRGEYSVCDSESLWVTDKSSAIDIRGHQVTVLGEIKTGNSPVKQYFYETRCKEARPVKNGCRGIDDKHWNSQCKTSQTYVRALTSENNKLVGWRWIRIDTSCVCALSRKIGRT
For B1, the “ABR wave 1 amplitude” value (inner hair cell synapses [7]) is listed as “improvement” and the “inner hair cell synapses” value (inner hair cell synapses [7]) is listed as “recovered inner hair cell synapses”.
